Assay results: ChEMBL document CHEMBL1909570, “Synthesis and antibacterial activity of N4-mono alkyl derivatives of novel glycopeptide LYV07ww01” (2011)
Values after ≈ are worked out from the molar mass of the structure shown.

Experiments:
Type in all cases: functional
Streptococcus pneumoniae [1] = assay: Antibacterial activity against Streptococcus pneumoniae 31002 by CLSI agar microdilution method
Enterococcus faecium [2] = assay: Antibacterial activity against Enterococcus faecium 32220 by CLSI agar microdilution method
[3] = tested on: Staphylococcus epidermidis; assay: Antibacterial activity against Staphylococcus epidermidis 26069 by CLSI agar microdilution method
Staphylococcus aureus = assay: Antibacterial activity against Staphylococcus aureus 26003 by CLSI agar microdilution method
Staphylococcus = assay: Antibacterial activity against Staphylococcus albus 26101 by CLSI agar microdilution method
Streptococcus = assay: Antibacterial activity against Streptococcus gamma 32206 by CLSI agar microdilution method
Streptococcus pneumoniae [4] = assay: Antibacterial activity against penicillin-intermediate Streptococcus pneumoniae ATCC 49619 by CLSI broth microdilution method
Enterococcus faecalis [5] = assay: microbe, parasite or virus in culture; details: ATCC 51299
Description: Antibacterial activity against vancomycin-resistant Enterococcus faecalis ATCC 51299 by CLSI agar microdilution method

Enterococcus faecalis [6] = assay: microbe, parasite or virus in culture; details: ATCC 29212
Description: Antibacterial activity against vancomycin-sensitive Enterococcus faecalis ATCC 29212 by CLSI agar microdilution method

Enterococcus faecium [7] = assay: Antibacterial activity against vancomycin-sensitive Enterococcus faecium ATCC 35667 by CLSI agar microdilution method
Streptococcus pneumoniae [8] = assay: Antibacterial activity against penicillin-resistant Streptococcus pneumoniae MSPN 0003 by CLSI broth microdilution method
Enterococcus faecium [9] = assay: Antibacterial activity against vancomycin-resistant Enterococcus faecium MEFA 0039 by CLSI agar microdilution method

Compound	MIC (Streptococcus pneumoniae [1]) [µg/mL]	MIC (Enterococcus faecium [2]) [µg/mL]	MIC [3] [µg/mL]	MIC (Staphylococcus aureus) [µg/mL]	MIC (Staphylococcus) [µg/mL]	MIC (Streptococcus) [µg/mL]	MIC (Streptococcus pneumoniae [4]) [µg/mL]	MIC (Enterococcus faecalis [5]) [µg/mL]	MIC (Enterococcus faecalis [6]) [µg/mL]	MIC (Enterococcus faecium [7]) [µg/mL]	MIC (Streptococcus pneumoniae [8]) [µg/mL]	MIC (Enterococcus faecium [9]) [µg/mL]
CN[C@H](CC(C)C)C(=O)N[C@H]1C(=O)N[C@@H](CC(N)=O)C(=O)N[C@H]2C(=O)N[C@H]3C(=O)N[C@H](C(=O)N[C@@H](C(=O)O)c4cc(O)cc(O)c4-c4cc3ccc4O)[C@H](O[C@H]3C[C@](C)(N)[C@H](O)[C@H](C)O3)c3ccc(c(Cl)c3)Oc3cc2cc(c3O[C@@H]2O[C@H](CO)[C@@H](O)[C@H](O)[C@H]2O[C@H]2C[C@](C)(NCc3ccc(Cl)cc3)[C@H](O)[C@H](C)O2)Oc2ccc(cc2Cl)[C@H]1O	1.56 (≈ 0.909 µM)	3.13 (≈ 1.82 µM)	12.5 (≈ 7.28 µM)	3.13 (≈ 1.82 µM)	3.13 (≈ 1.82 µM)	1.56 (≈ 0.909 µM)						
CN[C@H](CC(C)C)C(=O)N[C@H]1C(=O)N[C@@H](CC(N)=O)C(=O)N[C@H]2C(=O)N[C@H]3C(=O)N[C@H](C(=O)N[C@@H](C(=O)O)c4cc(O)cc(O)c4-c4cc3ccc4O)[C@H](O[C@H]3C[C@](C)(N)[C@H](O)[C@H](C)O3)c3ccc(c(Cl)c3)Oc3cc2cc(c3O[C@@H]2O[C@H](CO)[C@@H](O)[C@H](O)[C@H]2O[C@H]2C[C@](C)(NCc3cccs3)[C@H](O)[C@H](C)O2)Oc2ccc(cc2Cl)[C@H]1O	6.25 (≈ 3.7 µM)	12.5 (≈ 7.4 µM)	> 25	25 (≈ 14.8 µM)	> 25	25 (≈ 14.8 µM)						
CN[C@H](CC(C)C)C(=O)N[C@H]1C(=O)N[C@@H](CC(N)=O)C(=O)N[C@H]2C(=O)N[C@H]3C(=O)N[C@H](C(=O)N[C@H](C(=O)O)c4cc(O)cc(O)c4-c4cc3ccc4O)[C@H](O)c3ccc(c(Cl)c3)Oc3cc2cc(c3O[C@@H]2O[C@H](CO)[C@@H](O)[C@H](O)[C@H]2O[C@H]2C[C@](C)(N)[C@H](O)[C@H](C)O2)Oc2ccc(cc2Cl)[C@H]1O.Cl [VANCOMYCIN HYDROCHLORIDE]	0.39	6.25	> 25	0.78	3.13	6.25	0.125	8	1	0.25	0.25	> 32
CN[C@H](CC(C)C)C(=O)N[C@H]1C(=O)N[C@@H](CC(N)=O)C(=O)N[C@H]2C(=O)N[C@H]3C(=O)N[C@H](C(=O)N[C@@H](C(=O)O)c4cc(O)cc(O)c4-c4cc3ccc4O)[C@H](O[C@H]3C[C@](C)(N)[C@H](O)[C@H](C)O3)c3ccc(c(Cl)c3)Oc3cc2cc(c3O[C@@H]2O[C@H](CO)[C@@H](O)[C@H](O)[C@H]2O[C@H]2C[C@](C)(NCc3ccc4ccccc4c3)[C@H](O)[C@H](C)O2)Oc2ccc(cc2Cl)[C@H]1O	1.56 (≈ 0.9 µM)	3.13 (≈ 1.81 µM)	> 25	1.56 (≈ 0.9 µM)	3.13 (≈ 1.81 µM)	0.78 (≈ 0.45 µM)						
CCCCCCCCCCNCCN[C@@]1(C)C[C@H](O[C@H]2[C@H](Oc3c4cc5cc3Oc3ccc(cc3Cl)[C@@H](O[C@H]3C[C@](C)(N)[C@H](O)[C@H](C)O3)[C@@H]3NC(=O)[C@H](NC(=O)[C@@H]5NC(=O)[C@H](CC(N)=O)NC(=O)[C@H](NC(=O)[C@@H](CC(C)C)NC)[C@H](O)c5ccc(c(Cl)c5)O4)c4ccc(O)c(c4)-c4c(O)cc(O)cc4[C@H](C(=O)O)NC3=O)O[C@H](CO)[C@@H](O)[C@@H]2O)O[C@@H](C)[C@H]1O	3.13 (≈ 1.76 µM)	12.5 (≈ 7.04 µM)	> 25	6.25 (≈ 3.52 µM)	6.25 (≈ 3.52 µM)	3.13 (≈ 1.76 µM)						
CCCCCCCCOc1ccc(CN[C@@]2(C)C[C@H](O[C@H]3[C@H](Oc4c5cc6cc4Oc4ccc(cc4Cl)[C@@H](O[C@H]4C[C@](C)(N)[C@H](O)[C@H](C)O4)[C@@H]4NC(=O)[C@H](NC(=O)[C@@H]6NC(=O)[C@H](CC(N)=O)NC(=O)[C@H](NC(=O)[C@@H](CC(C)C)NC)[C@H](O)c6ccc(c(Cl)c6)O5)c5ccc(O)c(c5)-c5c(O)cc(O)cc5[C@H](C(=O)O)NC4=O)O[C@H](CO)[C@@H](O)[C@@H]3O)O[C@@H](C)[C@H]2O)cc1	6.25 (≈ 3.45 µM)	12.5 (≈ 6.9 µM)	> 25	12.5 (≈ 6.9 µM)	12.5 (≈ 6.9 µM)	6.25 (≈ 3.45 µM)						
CN[C@H](CC(C)C)C(=O)N[C@H]1C(=O)N[C@@H](CC(N)=O)C(=O)N[C@H]2C(=O)N[C@H]3C(=O)N[C@H](C(=O)N[C@@H](C(=O)O)c4cc(O)cc(O)c4-c4cc3ccc4O)[C@H](O[C@H]3C[C@](C)(N)[C@H](O)[C@H](C)O3)c3ccc(c(Cl)c3)Oc3cc2cc(c3O[C@@H]2O[C@H](CO)[C@@H](O)[C@H](O)[C@H]2O[C@H]2C[C@](C)(NCc3ccc(Oc4cccc(OC)c4)cc3)[C@H](O)[C@H](C)O2)Oc2ccc(cc2Cl)[C@H]1O	3.13 (≈ 1.73 µM)	3.13 (≈ 1.73 µM)	> 25	3.13 (≈ 1.73 µM)	3.13 (≈ 1.73 µM)	0.78 (≈ 0.432 µM)						
CCCCCCOc1ccc(CN[C@@]2(C)C[C@H](O[C@H]3[C@H](Oc4c5cc6cc4Oc4ccc(cc4Cl)[C@@H](O[C@H]4C[C@](C)(N)[C@H](O)[C@H](C)O4)[C@@H]4NC(=O)[C@H](NC(=O)[C@@H]6NC(=O)[C@H](CC(N)=O)NC(=O)[C@H](NC(=O)[C@@H](CC(C)C)NC)[C@H](O)c6ccc(c(Cl)c6)O5)c5ccc(O)c(c5)-c5c(O)cc(O)cc5[C@H](C(=O)O)NC4=O)O[C@H](CO)[C@@H](O)[C@@H]3O)O[C@@H](C)[C@H]2O)cc1	3.13 (≈ 1.76 µM)	6.25 (≈ 3.51 µM)	> 25	6.25 (≈ 3.51 µM)	6.25 (≈ 3.51 µM)	3.13 (≈ 1.76 µM)						
CCCCCCCN[C@@]1(C)C[C@H](O[C@H]2[C@H](Oc3c4cc5cc3Oc3ccc(cc3Cl)[C@@H](O[C@H]3C[C@](C)(N)[C@H](O)[C@H](C)O3)[C@@H]3NC(=O)[C@H](NC(=O)[C@@H]5NC(=O)[C@H](CC(N)=O)NC(=O)[C@H](NC(=O)[C@@H](CC(C)C)NC)[C@H](O)c5ccc(c(Cl)c5)O4)c4ccc(O)c(c4)-c4c(O)cc(O)cc4[C@H](C(=O)O)NC3=O)O[C@H](CO)[C@@H](O)[C@@H]2O)O[C@@H](C)[C@H]1O	0.78 (≈ 0.461 µM)	> 25	> 25	1.56 (≈ 0.923 µM)	1.56 (≈ 0.923 µM)	1.56 (≈ 0.923 µM)						
CCCCCCCCCOc1ccc(CN[C@@]2(C)C[C@H](O[C@H]3[C@H](Oc4c5cc6cc4Oc4ccc(cc4Cl)[C@@H](O[C@H]4C[C@](C)(N)[C@H](O)[C@H](C)O4)[C@@H]4NC(=O)[C@H](NC(=O)[C@@H]6NC(=O)[C@H](CC(N)=O)NC(=O)[C@H](NC(=O)[C@@H](CC(C)C)NC)[C@H](O)c6ccc(c(Cl)c6)O5)c5ccc(O)c(c5)-c5c(O)cc(O)cc5[C@H](C(=O)O)NC4=O)O[C@H](CO)[C@@H](O)[C@@H]3O)O[C@@H](C)[C@H]2O)cc1	12.5 (≈ 6.85 µM)	12.5 (≈ 6.85 µM)	> 25	12.5 (≈ 6.85 µM)	25 (≈ 13.7 µM)	12.5 (≈ 6.85 µM)						
CCCCCCCCCCN[C@@]1(C)C[C@H](O[C@H]2[C@H](Oc3c4cc5cc3Oc3ccc(cc3Cl)[C@@H](O[C@H]3C[C@](C)(N)[C@H](O)[C@H](C)O3)[C@@H]3NC(=O)[C@H](NC(=O)[C@@H]5NC(=O)[C@H](CC(N)=O)NC(=O)[C@H](NC(=O)[C@@H](CC(C)C)NC)[C@H](O)c5ccc(c(Cl)c5)O4)c4ccc(O)c(c4)-c4c(O)cc(O)cc4[C@H](C(=O)O)NC3=O)O[C@H](CO)[C@@H](O)[C@@H]2O)O[C@@H](C)[C@H]1O	6.25 (≈ 3.61 µM)	> 25	> 25	6.25 (≈ 3.61 µM)	6.25 (≈ 3.61 µM)	6.25 (≈ 3.61 µM)						
CN[C@H](CC(C)C)C(=O)N[C@H]1C(=O)N[C@@H](CC(N)=O)C(=O)N[C@H]2C(=O)N[C@H]3C(=O)N[C@H](C(=O)N[C@@H](C(=O)O)c4cc(O)cc(O)c4-c4cc3ccc4O)[C@H](O[C@H]3C[C@](C)(N)[C@H](O)[C@H](C)O3)c3ccc(c(Cl)c3)Oc3cc2cc(c3O[C@@H]2O[C@H](CO)[C@@H](O)[C@H](O)[C@H]2O[C@H]2C[C@](C)(NC/C=C/c3ccccc3)[C@H](O)[C@H](C)O2)Oc2ccc(cc2Cl)[C@H]1O	1.56 (≈ 0.913 µM)	3.13 (≈ 1.83 µM)	> 25	3.13 (≈ 1.83 µM)	3.13 (≈ 1.83 µM)	1.56 (≈ 0.913 µM)						
CN[C@H](CC(C)C)C(=O)N[C@H]1C(=O)N[C@@H](CC(N)=O)C(=O)N[C@H]2C(=O)N[C@H]3C(=O)N[C@H](C(=O)N[C@@H](C(=O)O)c4cc(O)cc(O)c4-c4cc3ccc4O)[C@H](O[C@H]3C[C@](C)(N)[C@H](O)[C@H](C)O3)c3ccc(c(Cl)c3)Oc3cc2cc(c3O[C@@H]2O[C@H](CO)[C@@H](O)[C@H](O)[C@H]2O[C@H]2C[C@](C)(NCc3cccc4ccccc34)[C@H](O)[C@H](C)O2)Oc2ccc(cc2Cl)[C@H]1O	0.78 (≈ 0.45 µM)	1.56 (≈ 0.9 µM)	> 25	1.56 (≈ 0.9 µM)	1.56 (≈ 0.9 µM)	6.25 (≈ 3.61 µM)						
CN[C@H](CC(C)C)C(=O)N[C@H]1C(=O)N[C@@H](CC(N)=O)C(=O)N[C@H]2C(=O)N[C@H]3C(=O)N[C@H](C(=O)N[C@@H](C(=O)O)c4cc(O)cc(O)c4-c4cc3ccc4O)[C@H](O[C@H]3C[C@](C)(N)[C@H](O)[C@H](C)O3)c3ccc(c(Cl)c3)Oc3cc2cc(c3O[C@@H]2O[C@H](CO)[C@@H](O)[C@H](O)[C@H]2O[C@H]2C[C@](C)(NCc3ccc(-c4ccccc4)cc3)[C@H](O)[C@H](C)O2)Oc2ccc(cc2Cl)[C@H]1O	1.56 (≈ 0.887 µM)	1.56 (≈ 0.887 µM)	6.25 (≈ 3.55 µM)	3.13 (≈ 1.78 µM)	1.56 (≈ 0.887 µM)	0.78 (≈ 0.444 µM)						
